Here are results for 14 compounds from ChEMBL document CHEMBL3045944, “Synthesis and antibacterial evaluation of series of novel tri-substituted-s-triazine derivatives” (Med Chem Res, 2011).

The MIC is the lowest concentration found to suppress growth.

Structures are written as SMILES. Converted amounts (≈) assume the structure as drawn.

The test system of one data set is Escherichia coli. The data set can be described thus: Antibacterial activity against Escherichia coli NCIM 2065 after 24 hr by broth dilution method. Format: functional. The conditions noted are these: NCIM 2065, 24 h. A general note: Dilution methods test growth across graded concentrations, often in twofold steps.
Data set [1] in a line: Solubility of the compound in water. Format: physicochemical.
The next data set has as its system Klebsiella pneumoniae. Briefly: Antibacterial activity against Klebsiella pneumoniae NCIM 2706 after 24 hr by broth dilution method. The conditions noted are these: NCIM 2706, 24 h. Format: functional.
The nature of data set [2]: Solubility of the compound in ethyl acetate. The data set is classed as physicochemical.
Data set [3] can be described thus: Solubility of the compound in DMSO. Format: physicochemical.
For a further data set, the system named is Bacillus subtilis. The data set can be described thus: Antibacterial activity against Bacillus subtilis NCIM 2063 after 24 hr by broth dilution method. Format: functional. The conditions noted are these: NCIM 2063, 24 h.
Data set [4] is described as follows: Solubility of the compound in DMF. The data set is classed as physicochemical.
The subject of the next data set is Pseudomonas aeruginosa. The data set can be described thus: Antibacterial activity against Pseudomonas aeruginosa NCIM 2036 after 24 hr by broth dilution method. The data set is classed as functional. To be noted: NCIM 2036, 24 h.
The next data set relates to Bacillus cereus. The data set can be described thus: Antibacterial activity against Bacillus cereus NCIM 2156 after 24 hr by broth dilution method. Format: functional. The conditions noted are these: NCIM 2156, 24 h.
A short description of data set [5]: Solubility of the compound in ethanol. Format: physicochemical.
Data set [6] can be described thus: Solubility of the compound in chloroform. Format: physicochemical.
Data set [7] is described as follows: Solubility of the compound in benzene. The data set is classed as physicochemical.
The nature of data set [8]: Solubility of the compound in acetic acid. The data set is classed as physicochemical.
In the next data set the test system is Staphylococcus aureus. The data set can be described thus: Antibacterial activity against Staphylococcus aureus NCIM 2079 after 24 hr by broth dilution method. To be noted: NCIM 2079, 24 h. The data set is classed as functional.
Data set [9] can be described thus: Solubility of the compound in dilute acids. The data set is classed as physicochemical.

For `O=[N+]([O-])c1ccc(-c2csc(Nc3nc(Nc4ccc(F)c(Cl)c4)nc(Nc4ccc(F)c(Cl)c4)n3)n2)cc1`, the MIC in the data set on Escherichia coli was 12.5 µg/mL (≈ 21.3 µM); against Klebsiella pneumoniae, 25 µg/mL (≈ 42.6 µM); against Bacillus subtilis, 100 µg/mL (≈ 170 µM); in the data set with Pseudomonas aeruginosa, 3.12 µg/mL (≈ 5.32 µM); against Bacillus cereus, 25 µg/mL (≈ 42.6 µM); against Staphylococcus aureus, 50 µg/mL (≈ 85.1 µM). Further, the solubility entry in data set [1], in data set [2], in [3], in data set [4], in data set [5] and in data set [6] was “soluble” each time. The values for the solubility result in [7], in data set [8] and in data set [9] were “soluble”, “Insoluble” and “soluble”, respectively.
For `Fc1ccc(Nc2nc(Cl)nc(Nc3ccc(F)c(Cl)c3)n2)cc1Cl`, the MIC against Escherichia coli amounted to 100 µg/mL (≈ 248 µM); against Klebsiella pneumoniae, 100 µg/mL (≈ 248 µM); in the data set on Bacillus subtilis it was 100 µg/mL (≈ 248 µM); against Pseudomonas aeruginosa, 100 µg/mL (≈ 248 µM); against Bacillus cereus it was 100 µg/mL (≈ 248 µM); against Staphylococcus aureus, 50 µg/mL (≈ 124 µM). The solubility result in [1], in data set [3], in data set [5], in data set [7], in data set [8] and in data set [9] was “soluble” in each case.
With `Fc1ccc(Nc2nc(Cl)nc(Nc3ccc(F)cc3)n2)cc1`, the MIC against Escherichia coli came out at 50 µg/mL (≈ 150 µM); against Klebsiella pneumoniae, 50 µg/mL (≈ 150 µM); with Bacillus subtilis it was 50 µg/mL (≈ 150 µM); against Pseudomonas aeruginosa it was 100 µg/mL (≈ 300 µM); with Bacillus cereus it was 50 µg/mL (≈ 150 µM); in the data set with Staphylococcus aureus, 100 µg/mL (≈ 300 µM). For the same compound, the solubility result is listed as “soluble” in data set [1]; “Insoluble” in data set [2]; “soluble” in data set [3]; “Insoluble” in data set [4]; “soluble” in [5]; “Insoluble” in data set [6]. Also, the solubility result in data set [7] is given as “soluble”; in data set [8], “soluble”; in [9], “Insoluble”.
For `CN[C@@H]1[C@H](O[C@H]2[C@H](O[C@H]3[C@H](O)[C@@H](O)[C@H](N=C(N)N)[C@@H](O)[C@@H]3N=C(N)N)O[C@@H](C)[C@]2(O)C=O)O[C@@H](CO)[C@H](O)[C@H]1O` [STREPTOMYCIN], the MIC against Escherichia coli turned out to be 6.25 µg/mL (≈ 10.7 µM); in the data set with Klebsiella pneumoniae, 6.25 µg/mL (≈ 10.7 µM); in the data set with Bacillus subtilis, 6.25 µg/mL (≈ 10.7 µM); with Pseudomonas aeruginosa, 3.12 µg/mL (≈ 5.37 µM); with Bacillus cereus it was 3.12 µg/mL (≈ 5.37 µM); with Staphylococcus aureus, 3.12 µg/mL (≈ 5.37 µM).
Take `Nc1nc(-c2ccc([N+](=O)[O-])cc2)cs1`: the solubility result in data set [1], in data set [2], in [3], in [4], in data set [5] and in data set [6] was “soluble” each time. In addition, the values for the solubility entry in data set [7], in data set [8] and in data set [9] were “soluble”, “Insoluble” and “soluble”, respectively.
Consider `O=[N+]([O-])c1ccc(-c2csc(Nc3nc(Nc4ccc(Cl)cc4)nc(Nc4ccc(Cl)cc4)n3)n2)cc1`, for which the MIC against Escherichia coli is 12.5 µg/mL (≈ 22.7 µM); with Klebsiella pneumoniae, 6.25 µg/mL (≈ 11.3 µM); in the data set with Bacillus subtilis, 25 µg/mL (≈ 45.3 µM); in the data set on Pseudomonas aeruginosa it was 6.25 µg/mL (≈ 11.3 µM); in the data set on Bacillus cereus it was 12.5 µg/mL (≈ 22.7 µM); against Staphylococcus aureus, 25 µg/mL (≈ 45.3 µM). Further, the solubility result was “soluble” in data set [1]; “Insoluble” in data set [2]; “soluble” in [3]; “soluble” in data set [4]; “soluble” in [5]; “Insoluble” in data set [6]. For the same compound, the solubility result in data set [7] is “soluble”; in [8], “Insoluble”; in [9], “soluble”.
Regarding `Clc1ccc(Nc2nc(Cl)nc(Nc3ccc(Cl)cc3)n2)cc1`, the MIC against Escherichia coli was found to be 25 µg/mL (≈ 68.2 µM); with Klebsiella pneumoniae, 25 µg/mL (≈ 68.2 µM); in the data set on Bacillus subtilis it was 50 µg/mL (≈ 136 µM); in the data set with Pseudomonas aeruginosa it was 50 µg/mL (≈ 136 µM); against Bacillus cereus it was 100 µg/mL (≈ 273 µM); with Staphylococcus aureus it was 50 µg/mL (≈ 136 µM). Also, the solubility entry was “Insoluble” in data set [1]; “Insoluble” in [2]; “soluble” in data set [3]; “Insoluble” in data set [4]; “soluble” in data set [5]; “soluble” in data set [6]. Also, the solubility result in [8] is on record as “soluble”; in [9] it was “Insoluble”.
As to `Clc1nc(Nc2ccc(Br)cc2)nc(Nc2ccc(Br)cc2)n1`, the minimal inhibitory concentration (MIC) against Escherichia coli, in the data set on Klebsiella pneumoniae, against Bacillus subtilis, in the data set with Pseudomonas aeruginosa, in the data set on Bacillus cereus and with Staphylococcus aureus was 100 µg/mL (≈ 220 µM) each time. Further, the solubility result in data set [1] was “Insoluble”; in data set [2], “soluble”; in data set [3], “soluble”; in [4], “Insoluble”; in data set [5], “soluble”; in data set [6], “Insoluble”. The solubility result in data set [7], in data set [8] and in data set [9] was “soluble” throughout.
For the compound `Nc1nc(-c2ccc(Cl)cc2)cs1`, the solubility result in data set [1], in [2], in data set [3], in data set [4], in data set [5] and in data set [6] was “soluble” throughout. The solubility entry in data set [7] is recorded as “soluble”; in [8], “Insoluble”; in data set [9], “soluble”.
In the case of `O=[N+]([O-])c1ccc(Nc2nc(Nc3ccc([N+](=O)[O-])cc3)nc(Nc3nc(-c4ccc([N+](=O)[O-])cc4)cs3)n2)cc1`, the MIC was 6.25 µg/mL (≈ 10.9 µM) against Escherichia coli; 6.25 µg/mL (≈ 10.9 µM) against Klebsiella pneumoniae; 6.25 µg/mL (≈ 10.9 µM) against Bacillus subtilis; 3.12 µg/mL (≈ 5.46 µM) in the data set with Pseudomonas aeruginosa; 6.25 µg/mL (≈ 10.9 µM) against Bacillus cereus; 3.12 µg/mL (≈ 5.46 µM) in the data set on Staphylococcus aureus. The solubility result in [1] was “soluble”; in [2], “Insoluble”; in [3], “soluble”; in data set [4], “soluble”; in [5], “soluble”; in [6] it was “Insoluble”. Moreover, the results for the solubility entry in data set [7], in data set [8] and in [9] were “soluble”, “Insoluble” and “soluble”, respectively.
As to `O=[N+]([O-])c1ccc(-c2csc(Nc3nc(Nc4ccc(F)cc4)nc(Nc4ccc(F)cc4)n3)n2)cc1`, the minimal inhibitory concentration (MIC) against Escherichia coli came to 25 µg/mL (≈ 48.2 µM); in the data set with Klebsiella pneumoniae it was 50 µg/mL (≈ 96.4 µM); against Bacillus subtilis, 50 µg/mL (≈ 96.4 µM); in the data set on Pseudomonas aeruginosa, 25 µg/mL (≈ 48.2 µM); against Bacillus cereus, 100 µg/mL (≈ 193 µM); against Staphylococcus aureus it was 50 µg/mL (≈ 96.4 µM). The solubility entry is “soluble” in data set [1]; “Insoluble” in [2]; “soluble” in data set [3]; “soluble” in data set [4]; “soluble” in [5]; “soluble” in data set [6]. Also, the solubility entry in [7] is recorded as “soluble”; in data set [8], “Insoluble”; in data set [9] it was “soluble”.
Take `O=[N+]([O-])c1ccc(Nc2nc(Cl)nc(Nc3ccc([N+](=O)[O-])cc3)n2)cc1`: the MIC was 50 µg/mL (≈ 129 µM) against Escherichia coli; 100 µg/mL (≈ 258 µM) with Klebsiella pneumoniae; 100 µg/mL (≈ 258 µM) in the data set on Bacillus subtilis; 25 µg/mL (≈ 64.5 µM) with Pseudomonas aeruginosa; 100 µg/mL (≈ 258 µM) in the data set with Bacillus cereus; 50 µg/mL (≈ 129 µM) in the data set with Staphylococcus aureus. For the same compound, the solubility entry is “soluble” in [1]; “soluble” in [2]; “soluble” in data set [3]; “Insoluble” in [4]; “soluble” in [5]; “soluble” in [6]. Moreover, the solubility entry was “Insoluble” in data set [7], “soluble” in [8] and “soluble” in data set [9].
In the case of `Fc1ccc(Nc2nc(Nc3ccc(F)c(Cl)c3)nc(Nc3nc(-c4ccc(Cl)cc4)cs3)n2)cc1Cl`, the minimal inhibitory concentration (MIC) came to 12.5 µg/mL (≈ 21.7 µM) in the data set on Escherichia coli; 12.5 µg/mL (≈ 21.7 µM) with Klebsiella pneumoniae; 50 µg/mL (≈ 86.7 µM) in the data set with Bacillus subtilis; 25 µg/mL (≈ 43.3 µM) against Pseudomonas aeruginosa; 100 µg/mL (≈ 173 µM) against Bacillus cereus; 25 µg/mL (≈ 43.3 µM) with Staphylococcus aureus. The solubility result in [1], in data set [2], in data set [3], in [4], in [5] and in data set [6] was “soluble” each time. Further, the solubility entry in data set [7] is reported as “soluble”; in data set [8], “Insoluble”; in [9], “soluble”.
As for `O=[N+]([O-])c1ccc(-c2csc(Nc3nc(Nc4ccc(Br)cc4)nc(Nc4ccc(Br)cc4)n3)n2)cc1`, the MIC against Escherichia coli is 100 µg/mL (≈ 156 µM); with Klebsiella pneumoniae, 100 µg/mL (≈ 156 µM); with Bacillus subtilis, 100 µg/mL (≈ 156 µM); against Pseudomonas aeruginosa, 50 µg/mL (≈ 78.1 µM); against Bacillus cereus, 100 µg/mL (≈ 156 µM); against Staphylococcus aureus, 100 µg/mL (≈ 156 µM). The solubility result in data set [1] was “soluble”; in data set [2], “soluble”; in [3], “soluble”; in data set [4] it was “soluble”; in [5], “soluble”; in data set [6], “Insoluble”. Besides, the solubility entry in data set [7], in data set [8] and in data set [9] was “soluble” throughout.
